The values below come from patent EP4624497A1, “PHOSPHOEN[…] PROBE, PREPARATION METHOD THEREFOR AND APPLICATION THEREOF” (priority 2022, dated 2024).

Common to all, as to assay: phosphoenolpyruvate titration of purified optical probe (fluorescence ratio)
Assay type in all cases: binding
Holding throughout (conditions): phosphoenolpyruvate 0 to 10 mM, purified probe treated 10 minutes, ex 420/485 nm, em 528 nm

For assay [1], the target named is T1, Thermus thermophilus TtPFK optical probe 254/255-TtPFK-I253G/Q254L/R255L/G256F-cpYFP-Y1P (Thermus thermophilus, UniProt P21777, form not given/G256F/I253G/Q254L/R255L).
T1 construct: the numbering corresponds to the full length of the phosphoenolpyruvate-sensitive polypeptide; His-tag; made in house; host or cells: E. coli BL21 (DE3)
As to the method: (§1) • 1. The expression vectors (for example, a phosphoenolpyruvate optical probe expression vector based on pCDF.) were transformed into BL21 (DE3) cells, incubated inverted overnight, and the clones were picked from the plates into 250 mL Erlenmeyer flasks, placed in a shaker at 37 °C and incubated at 220 rpm to OD=0.4-0.8, then 1/1000 (V/V) of IPTG (1 M) was added to induce expression at 18 °C for 24-36 hours. • 2. Upon completion of inducible expression, cells were harvested by centrifugation at 4000 rpm for 30 min, resuspended in 50 mM phosphate buffer and disrupted ultrasonically until the broth were clear, centrifuged at 9600 rpm at 4 °C for 20 min. • 3. The centrifuged supernatant was used to obtain protein by purification through a self-packed nickel column affinity chromatography column, and the protein obtained after nickel column affinity chromatography was further used to obtain protein dissolved in 100 mM HEPES buffer (pH 7.4). • 4. After purified proteins were subjected to SDS-PAGE, probes were diluted to a protein solution having a final concentration of 0.2-5 µM using assay buffer (100 mm HEPES, 100 mM NaCl, pH 7.4). Phosphoenolpyruvate was formulated as a stock solution at a final concentration of 50 mM with the assay buffer (100 mM HEPES, 100 mM NaCl, pH 7.4). • 5. 100 µl 1 µM of protein solution was taken, incubated at 37 °C for 10 min, phosphoenolpyruvate was added for titration, and the fluorescence intensity of 528 nm emission after 420 nm and 485 nm fluorescence excitation of the protein was measured. The fluorescence excitation and emission determination of the samples were done using a multifunctional fluorescence microplate reader. • 6. 100 µl 1 µM of protein solution was taken, incubated at 37 °C for 10 min, and phosphoenolpyruvate was added to determine the absorption and fluorescence spectra of the proteins. Determination of the absorption and fluorescence spectra of the samples was done by spectrophotometer and spectrofluorometer.
(§2) The recombinant plasmids of the mutation library were transformed into BL21 (DE3) to induce expression, and the purified probe protein was subjected to phosphoenolpyruvate-responsive screening, dividing the detection signal of the fusion fluorescent protein containing 2 mM phosphoenolpyruvate by that of the fusion fluorescent protein without phosphoenolpyruvate. […]

In assay [2] the target is T2, Thermus thermophilus TtPFK optical probe 254/255-TtPFK-cpYFP variant, TtPFK I253N/Q254L/R255L/G256F, cpYFP Y1S/N246F (Thermus thermophilus, UniProt P21777, form not given/G256F/I253N/Q254L/R255L).
T2 construct: the numbering corresponds to the full length of the phosphoenolpyruvate-sensitive polypeptide; His-tag; made in house; host or cells: E. coli BL21 (DE3)
The protocol:
as §1, §2

In assay [3] the target is T3, Thermus thermophilus TtPFK optical probe 254/255-TtPFK-cpYFP variant, TtPFK N59H/I253K/Q254L/R255L/G256F, cpYFP Y1S (Thermus thermophilus, UniProt P21777, form not given/G256F/I253K/N59H/Q254L/R255L).
T3 construct: the numbering corresponds to the full length of the phosphoenolpyruvate-sensitive polypeptide; His-tag; made in house; host or cells: E. coli BL21 (DE3)
As to the method:
as §1
(§3) For the 254/255-TtPFK-cpYFP obtained in Example 2 and the 254/255-TtPFK-I253G/Q254L/R255L/G256F-cpYFP-Y1P, 254/255-TtPFK-I253K/Q254L/R255L/G256F-cpYFP-Y1S and 254/256-TtPFK-I253Q/Q254L/G256V/G257L-cpYFP-Y1T/N246F optical probes obtained in Example 6, amino acid were mutated at positions R21, R25, V54, R55, V57, A58, N59, I60, I61, R155, G186, R212, G213, K214, K215, S216 and L320 in the phosphoenolpyruvate binding pocket, and at positions R72, R163, R172 and R246 in the ATP binding pocket to adjust the affinity of the phosphoenolpyruvate optical probe to phosphoenolpyruvate and the substrate specificity. The probes were linearized by reverse PCR, and the sequences of the mutation sites were introduced into the primers. The obtained PCR products were subjected to homologous recombination to obtain plasmids containing the above site mutations. The mutant plasmids were transformed into BL21 (DE3) for induced expression, and the mutant probe proteins were purified for the phosphoenolpyruvate response test. The detection signal of the fusion fluorescent protein containing 2 mM phosphoenolpyruvate was divided by the detection signal of the fusion fluorescent protein without phosphoenolpyruvate. […]

In assay [4] the target is T4, Thermus thermophilus TtPFK optical probe 254/255-TtPFK-cpYFP variant, TtPFK V54K/I253G/Q254L/R255L/G256F, cpYFP Y1P (Thermus thermophilus, UniProt P21777, form not given/G256F/I253G/Q254L/R255L/V54K).
T4 construct: the numbering corresponds to the full length of the phosphoenolpyruvate-sensitive polypeptide; His-tag; made in house; host or cells: E. coli BL21 (DE3)
The protocol: as §1, §3

Assay [5] concerns the target T5, Thermus thermophilus TtPFK optical probe 254/255-TtPFK-cpYFP variant, TtPFK V54K/I253K/Q254L/R255L/G256F, cpYFP Y1S (Thermus thermophilus, UniProt P21777, form not given/G256F/I253K/Q254L/R255L/V54K).
T5 construct: the numbering corresponds to the full length of the phosphoenolpyruvate-sensitive polypeptide; His-tag; made in house; host or cells: E. coli BL21 (DE3)
As to the method:
as §1, §3

Assay [6] deals with T6, Thermus thermophilus TtPFK optical probe 254/255-TtPFK-cpYFP variant, TtPFK V54Q/I253K/Q254L/R255L/G256F, cpYFP Y1S (Thermus thermophilus, UniProt P21777, form not given/G256F/I253K/Q254L/R255L/V54Q).
T6 construct: His-tag; made in house; host or cells: E. coli BL21 (DE3)
The protocol: as §1, §3

In assay [7] the target is T7, Thermus thermophilus TtPFK optical probe 254/256-TtPFK-cpYFP variant, TtPFK K215E/I253Q/Q254L/G256V/G257L, cpYFP Y1T/N246F (Thermus thermophilus, UniProt P21777, form not given/G256V/G257L/I253Q/K215E/Q254L).
T7 construct: the numbering corresponds to the full length of the phosphoenolpyruvate-sensitive polypeptide; His-tag; made in house; host or cells: E. coli BL21 (DE3), pCDF vector
As to the method:
as §1, §3

The target of assay [8] is T8, Thermus thermophilus TtPFK optical probe 254/256-TtPFK-cpYFP variant, TtPFK R212M/I253Q/Q254L/G256V/G257L, cpYFP Y1T/N246F (Thermus thermophilus, UniProt P21777, form not given/G256V/G257L/I253Q/Q254L/R212M).
T8 construct: the numbering corresponds to the full length of the phosphoenolpyruvate-sensitive polypeptide; His-tag; made in house; host or cells: E. coli BL21 (DE3)
The protocol: as §1, §3

SMILES strings stand for the structures.

T8 sequence (P21777 other isoform, or with tags, fused parts or gaps R212M, form open): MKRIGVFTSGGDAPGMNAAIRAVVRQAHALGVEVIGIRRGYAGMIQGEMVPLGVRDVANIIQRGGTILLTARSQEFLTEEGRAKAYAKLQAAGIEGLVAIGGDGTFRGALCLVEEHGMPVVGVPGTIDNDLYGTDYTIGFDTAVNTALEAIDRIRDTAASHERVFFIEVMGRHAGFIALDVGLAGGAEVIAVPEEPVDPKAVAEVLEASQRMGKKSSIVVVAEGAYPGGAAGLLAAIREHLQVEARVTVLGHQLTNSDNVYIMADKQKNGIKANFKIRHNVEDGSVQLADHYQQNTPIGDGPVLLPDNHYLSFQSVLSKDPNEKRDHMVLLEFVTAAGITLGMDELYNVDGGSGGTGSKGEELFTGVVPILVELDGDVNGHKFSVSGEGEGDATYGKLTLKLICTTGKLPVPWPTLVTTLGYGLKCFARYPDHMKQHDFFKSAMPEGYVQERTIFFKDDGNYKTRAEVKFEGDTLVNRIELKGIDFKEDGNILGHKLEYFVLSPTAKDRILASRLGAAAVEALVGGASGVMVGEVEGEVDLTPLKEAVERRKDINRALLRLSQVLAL
T3 sequence (P21777 other isoform, or with tags, fused parts or gaps N59H, form open): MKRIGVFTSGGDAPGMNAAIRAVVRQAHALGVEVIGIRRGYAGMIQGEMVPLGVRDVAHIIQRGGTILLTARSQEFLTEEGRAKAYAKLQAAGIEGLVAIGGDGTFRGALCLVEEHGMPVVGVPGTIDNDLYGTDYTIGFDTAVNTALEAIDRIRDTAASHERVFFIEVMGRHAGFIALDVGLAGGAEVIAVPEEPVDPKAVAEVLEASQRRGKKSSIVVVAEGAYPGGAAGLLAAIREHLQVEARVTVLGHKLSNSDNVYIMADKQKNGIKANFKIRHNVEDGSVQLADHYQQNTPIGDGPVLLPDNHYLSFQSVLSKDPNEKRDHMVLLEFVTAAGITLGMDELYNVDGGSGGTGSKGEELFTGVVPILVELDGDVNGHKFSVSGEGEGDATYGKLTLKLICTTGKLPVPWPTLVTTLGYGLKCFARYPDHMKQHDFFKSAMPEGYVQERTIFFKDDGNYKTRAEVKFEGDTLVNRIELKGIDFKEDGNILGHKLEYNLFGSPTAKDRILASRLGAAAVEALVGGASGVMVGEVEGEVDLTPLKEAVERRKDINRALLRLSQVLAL
T7 sequence (P21777 other isoform, or with tags, fused parts or gaps K215E, form open): as the sequence (P21777 other isoform, or with tags, fused parts or gaps R212M, form open) above, with M212R, K215E counted along it
T5 sequence (P21777 other isoform, or with tags, fused parts or gaps V54K, form open): as the sequence (P21777 other isoform, or with tags, fused parts or gaps N59H, form open) above, with V54K, H59N counted along it
T1 sequence (P21777 other isoform, or with tags, fused parts or gaps, stated change not applied): as the sequence (P21777 other isoform, or with tags, fused parts or gaps N59H, form open) above, with H59N, K253G, S255P counted along it
T4 sequence (P21777 other isoform, or with tags, fused parts or gaps V54K, form open): as the sequence (P21777 other isoform, or with tags, fused parts or gaps N59H, form open) above, with V54K, H59N, K253G, S255P counted along it
T6 sequence (P21777 other isoform, or with tags, fused parts or gaps V54Q, form open): as the sequence (P21777 other isoform, or with tags, fused parts or gaps N59H, form open) above, with V54Q, H59N counted along it
T2 sequence (P21777 other isoform, or with tags, fused parts or gaps, stated change not applied): as the sequence (P21777 other isoform, or with tags, fused parts or gaps N59H, form open) above, with H59N, K253N, N500F counted along it

The Kd is the free concentration of one partner at which half of the binding sites on the other are occupied at equilibrium, for simple one-to-one binding. Regarding `C=C(OP(=O)(O)O)C(=O)O` [phosphoenolpyruvate, Phosphoenolpyruvate], the dissociation constant Kd in assay [1] came to 30.9 µM; in assay [2], 9.66 µM; in assay [3] it was 87.7 µM; in assay [4], 267 µM; in assay [5], 129 µM; in assay [6], 328 µM. For the same compound, the dissociation constant (Kd) turned out to be 249 µM in assay [7] and 714 µM in assay [8].
